Experimental findings from US20130156845A1, “LIPID FORMULATED SINGLE STRANDED RNA” (ALNYLAM PHARMACEUTICALS, INC., priority 2010, published 2013) are described below.

For series [1] the following is noted: mouse, serum.
Description: Single-stranded oligomeric compounds were tested for stability in mouse serum.
The subject of series [2] is PTEN. Description: PTEN mRNA reduction in HeLa cells, dose response (Example 59). It is filed as cell-based, human. As to conditions: percent inhibition of PTEN mRNA, real-time PCR normalized to RIBOGREEN, 0.20-50 nM. How it is done: When cells reached 65-75% confluency, they are treated with one or more oligomeric compounds. The oligomeric compound is mixed with LIPOFECTIN™ Invitrogen Life Technologies, Carlsbad, Calif.) in Opti-MEM™-1 reduced serum medium (Invitrogen Life Technologies, Carlsbad, Calif.) to achieve the desired concentration of the oligomeric compound(s) and a LIPOFECTIN™ concentration of 2.5 or 3 μg/mL per 100 nM oligomeric compound(s). This transfection mixture is incubated at room temperature for approximately 0.5 hours. For cells grown in 96-well plates, wells are washed once with 100 μL OPTI-MEM™-1 and then treated with 130 μL of the transfection mixture. Cells grown in 24-well plates or other standard tissue culture plates are treated similarly, using appropriate volumes of medium and oligomeric compound(s). […]
Quantitation of target mRNA levels is accomplished by real-time quantitative PCR using the ABI PRISM™ 7600, 7700, or 7900 Sequence Detection System (PE-Applied Biosystems, Foster City, Calif.) according to manufacturer's instructions. This is a closed-tube, non-gel-based, fluorescence detection system which allows high-throughput quantitation of polymerase chain reaction (PCR) products in real-time. As opposed to standard PCR in which amplification products are quantitated after the PCR is completed, products in real-time quantitative PCR are quantitated as they accumulate. […]
(Real-time PCR tracks product formation cycle by cycle.)

Series [3] concerns PTEN. As to the kind of experiment: PTEN mRNA reduction in HeLa cells, dose response (Example 69). As to conditions: percent inhibition of PTEN mRNA, 0.067-50 nM. It is filed as cell-based, human. The method, then:
In accordance with the present disclosure, oligomeric compounds were synthesized and tested for their ability to reduce PTEN expression over a range of doses. Human HeLa cells were treated with either ISIS 447581, 467074, 418046 or 467076. A dose comparison was evaluated with dose concentrations of 0.067, 0.2, 0.62, 1.9, 5.5, 16.7 and 50 nM using methods described herein. Expression levels of PTEN were determined using real-time PCR and normalized to RIBOGREEN™ using methods described herein. The percent inhibition of PTEN mRNA was determined and the resulting dose-response curves were used to determine the EC50. The EC50s are listed below.

The next series has as its system human PTEN. As to the kind of experiment: PTEN expression in HeLa cells, ssRNAs vs siRNAs (Example 62). It is filed as cell-based. A digest of the protocol:
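HeLa cells treated with antisense strands either as single-stranded RNAs or duplexed with a common sense strand. PTEN mRNA levels normalized; IC50 from linear regression of normalized mRNA against log concentration.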

Another series has as its system A549 cells. As to the kind of experiment: MicroRNA mimics: cell cycle assay. As to conditions: RNAIMAX transfection, 0.1-100 nM, nocodazole, propidium iodide flow cytometry. In kind it is cell-based. How it is done:
A cell cycle assay was used to evaluate the activity of microRNA mimics. A549 cells were plated at a density of approximately 45,000 cells per well of a 24-well plate. The following day, cells were transfected with microRNA mimics and control oligomeric compounds, using RNAIMAX as the transfection reagent. Oligomeric compounds were tested at concentrations ranging from 0.1 nM to 100 nM. Control oligomeric compounds were also tested. Approximately 24 hours following transfection, nocodazole was added to the cells at a concentration ranging from 0.5 to 2.0 μg/ml. Approximately 16 hours later, the cells were harvested, washed, ethanol-fixed and stained with propidium iodide. Cells cycle profiles were generated by subjecting the stained cells to flow cytometry (FACSCAN).
In general terms: Flow cytometry measures light scatter and fluorescence of single cells or particles in a stream.

Series [4] deals with miR-34 seed-matched nucleic acids. As to the kind of experiment: Microarray analysis of gene expression changes after miR-34 mimics. In kind it is cell-based. As to conditions: microarray analysis of cells treated with miR-34 mimics. The source says: In addition to measuring cell cycle progression, cells treated with miR-34 mimics were subjected to microarray analysis to compare the profile of gene expression changes following treatment with microRNA mimics.

Where two headings read alike, the source gives them in different places. Strand notation (5' to 3'): a small letter for the sugar, then the base; units joined by * are phosphorothioate-linked, units joined directly phosphodiester-linked; [ ] holds rarer units or linkages, { } end groups; capitals alone tell only the bases. [Rc] = thymidine, 2',5'-bis modified nucleoside Rc; e = 2'-O-(2-methoxyethyl) (MOE); m = 2'-O-methyl; {P} = phosphate; f = 2'-fluoro

By EC50 is commonly meant the concentration needed to bring the measured effect to its halfway point.

“5′-Ps-UdUfoGfoUfoCfoUfoCfoUfoGfoGfoUfoCfoCfoUfsUfsAfsCfsUfsUfsAesAe [ISIS 435395]”: in series [1], the T1/2 full length turned out to be 7.8 h.

For “P-TRcUfGmUfCmUfCmUfGmGfUmCfCmUfUmAfCmUfUmAeAe (antisense TUGUCUCUGGUCCUUACUUAA; sugars from the 5' end [Rc]fmfmfmfmfmfmfmfmfmee, 5' {P}, backbone not given here) [ISIS 447581, modified ssRNA targeting PTEN]”, the EC50 in the series on PTEN [2] was 0.87 nM; in the series on PTEN [3], 0.6 nM; in the series with human PTEN (antisense strand duplexed with sense strand ISIS 341401, PTEN mRNA, read-out: EC50 (nM) siRNA) it was 0.4 nM; in the series on human PTEN (single stranded antisense compound, PTEN mRNA, read-out: EC50 (nM) ssRNA), 1 nM.

As for “P-UmGfGfCfAfGfUfGfUmCmUfUfAmGmCfUfGfGfUfUfGfUfAeAe ({P}-mUfGfGfCfAfGfUfGmUmCfUfUmAmGfCfUfG*fG*fU*fU*fG*fU*eA*eA) [ss miR-34]”, in the series with A549 cells, the cell cycle phenotype result is reported as “blocking cells in the G1 phase of the cell cycle”. Besides, in series [4], the “effect on miR-34 seed-matched nucleic acids” value was “down-regulated miR-34 seed-matched nucleic acids”.
